Assay results published in article PMC12097015, “Development of MDM2‐Targeting PROTAC for Advancing Bone Regeneration” (Advanced Science, 2025).

How the values were obtained:
p53 = p53 level by western blot in hBMSCs; type: cell-based, human; conditions: 0.1 µM to 10 µM
Experimental: (§1) Human Bone Marrow‐derived Mesenchymal Stem Cells (hBMSCs) were provided by Professor Lee's laboratory, and cells from passages four to nine were used for all experiments. hBMSCs were cultured in alpha‐minimum essential medium (Welgene, LM008‐01) supplemented with 10% Fetal Bovine Serum (FBS) (Gibco, US origin, 16000–044) and 1% penicillin/streptomycin (Gibco, 15140‐122).
(§2) After discarding the medium and washing the cells twice with cold dPBS, the cells were collected using a scraper and lysed using RIPA buffer (GenDEPOT, R4200‐010) containing protease and phosphatase inhibitors (GenDEPOT, P3200‐001). The collected samples were centrifuged at 13 200 rpm for 10 min at 4 °C, and the supernatant containing total protein was collected. SDS‐PAGE gels (10–12%) were prepared, and protein samples were mixed with 5X loading buffer containing reducing agent (Biosesang, S2002) and heated at 98 °C for 5 min. Equal amounts of protein samples were loaded onto a gel, separated by electrophoresis, and transferred onto nitrocellulose membranes using a Dry Transfer Stacks Kit (Invitrogen, IB23001). The membrane was blocked with 5% nonfat milk in 1X TBST for 1 h at room temperature to prevent nonspecific binding. The membranes were incubated with primary antibodies specific to the target proteins overnight at 4 °C with gentle shaking. […]

hBMSCs = test: Bulk RNA-seq of cultured hBMSCs; type: cell-based, human; conditions: CL144 versus Nutlin‐3
Description: ‐Sample Preparation: In accordance with the manufacturer's instructions, total RNA was extracted using Trizol from hBMSCs treated with Nutlin‐3 or CL144 as well as from control cells. Utilizing an Agilent Bioanalyzer RNA ScreenTape kit (Agilent, 5067–5576), the integrity of the RNA (RIN) was verified. All samples with RIN value > 8.0 were used for sequencing.
‐Library Construction: RNA‐seq libraries were constructed according to the manufacturer's instructions for the SRSLY Library Prep kit, which were provided by Claretbio (CBS‐K155B‐24). […] This work fragmented and enriched the mRNA using oligo (dT). After ligating the cDNA fragments to adapters, PCR amplification was performed.
‐Sequencing: The libraries were performed to sequencing on the Nextseq2000 (Illumina) platform, utilizing the SRSLY RNA NanoPlus kit to generate 100 bp paired‐end reads.
‐Data Analysis: FastQC was used to trim the adaptor sequences and remove low‐quality reads from the raw sequencing data (FASTQ files). After that, Hisat2 v2.2.1 was used to align these clean reads with the Human Genome Reference GRCh38. DESeq2 was used for differential expression analysis, while g: Profiler was used for GO enrichment analysis.

IKZF1 = target: T1, IKZF1 (Homo sapiens, UniProt Q13422); test: Neo-substrate off-target immunoblot in hBMSCs; type: cell-based; conditions: 10 µM, conditions with MDM2 degradation ≈70%
T1 construct: endogenous in cells; host or cells: hBMSCs
Experimental: as §2, with “shaking. The next day, the membrane was washed three times with TBST at 10 min intervals to remove unbound primary antibodies. The membranes were incubated with secondary antibodies (anti‐rabbit and anti‐mouse) conjugated to horseradish peroxidase (HRP) for 1 h at room temperature. The membrane was washed three times with 1X TBST at 10 min intervals to remove unbound secondary antibodies.” for “shaking.”

RUNX2, OCN, OPN = test: qPCR of osteogenic differentiation marker genes in hBMSCs; type: cell-based, human
Experimental: Total RNA was extracted from hBMSCs treated with Nutlin‐3 or CL144, as well as from control cells, using Trizol (Invitrogen, 15596026), according to the manufacturer's instructions. cDNA was synthesized using TOPscript RT DryMIX (Enzynomics, RT200). Human gene‐specific primer sequences were used. (Used primer sequences see Table S2, Supporting Information). qPCR was conducted using the SYBR Green qPCR Master Mix (Applied biosystems, 4 309 155). Relative gene expression levels were calculated using the ΔΔCt method with GAPDH as the internal control for normalization.

MDM2 = MDM2 (Homo sapiens, UniProt Q00987); test: MDM2 degradation by western blot in hBMSCs; type: cell-based; parameters: endogenous in cells; host or cells: hBMSCs
Experimental: as §1
After discarding the medium and washing the cells twice with cold dPBS, the cells were collected using a scraper and lysed using RIPA buffer (GenDEPOT, R4200‐010) containing protease and phosphatase inhibitors (GenDEPOT, P3200‐001). The collected samples were centrifuged at 13 200 rpm for 10 min at 4 °C, and the supernatant containing total protein was collected. SDS‐PAGE gels (10–12%) were prepared, and protein samples were mixed with 5X loading buffer containing reducing agent (Biosesang, S2002) and heated at 98 °C for 5 min. Equal amounts of protein samples were loaded onto a gel, separated by electrophoresis, and transferred onto nitrocellulose membranes using a Dry Transfer Stacks Kit (Invitrogen, IB23001). The membrane was blocked with 5% nonfat milk in 1X TBST for 1 h at room temperature to prevent nonspecific binding. The membranes were incubated with primary antibodies specific to the target proteins overnight at 4 °C with gentle shaking. The next day, the membrane was washed three times with TBST at 10 min intervals to remove unbound primary antibodies. The membranes were incubated with secondary antibodies (anti‐rabbit and anti‐mouse) conjugated to horseradish peroxidase (HRP) for 1 h at room temperature. The membrane was washed three times with 1X TBST at 10 min intervals to remove unbound secondary antibodies. After washing, a chemiluminescent substrate (ECL, Millipore, WBULS0100) was applied to the membrane to visualize protein bands using a chemiluminescence detector (for the antibodies used, see Table S2, Supporting Information).
The DC50 and Dmax values were calculated by western blot band quantification according to compound concentrations. The quantification value was normalized to the value relative to the untreated group and calculated using the sigmoidal dose‐response (variable slope) equation in GraphPad Prism.

EGFP‐MDM2 = test: EGFP-MDM2 fluorescence / live imaging degradation assay; type: cell-based
Experimental: HeLa cells were cultured in DMEM (Welgene, LM001‐05) supplemented with 10% FBS (Welgene, S001‐07). For transient transfection, the cells were seeded at ≈70% confluence. The following day, transfection was performed using Lipofectamine 3000 (Invitrogen, L3000015) for 24 h according to the manufacturer's protocol. The cells were transfected with 100 ng of EGFP‐MDM2 per well in the 96‐well plate and were transfected with 2 µg of MDM2 WT and 2 µg of HA‐ubiquitin, total 4 µg per well in the 6‐well plate.
To construct the EGFP‐MDM2 plasmid DNA, MDM2 WT was amplified by PCR using specific primers. The PCR products were digested with BamH1 and EcoR1 to generate compatible ends. The plasmid backbone, EGFP‐C1, previously digested with the same enzyme, was ligated into the digested PCR product using T4 ligase (Biolabs, M0202S). The resulting plasmid construct was confirmed using restriction enzyme digestion and DNA sequencing. MDM2 WT (#16233) and HA‐ubiquitin (#18712) were purchased from Addgene (used primer sequences, see Table S2, Supporting Information).
Real‐time Live cell imaging (phase contrast, EGFP fluorescence) was performed to monitor EGFP‐MDM2 intensity at 7 min intervals after compound treatment using Cytation5 (Agilent) laser autofocus conditions to capture EGFP fluorescence to assess intensity. For fluorescence imaging, the cells were fixed using 4% PFA and washed three times with 1X dPBS. Fluorescence imaging was performed using the Cytation5. The intensity of fluorescence was assessed by tracking the fluorescence of individual cells in each image using the Time‐lapse analyzer or ROI measure feature of the Fiji ImageJ software (Version 1.54 h, USA).

rabbit calvaria = test: Rabbit calvarial vertical onlay graft model; type: in vivo, New Zealand white rabbits; conditions: eight weeks, CL144 10 μΜ or rhBMP‐2 3.85 μΜ soaked on BCP carrier
Experimental: Total six male, New Zealand white rabbits, weighing ≈2.8–3.2 kg were used for the rabbit calvaria onlay graft model. Rabbits were kept in separate cages under standard laboratory conditions with free access to food and water and provided standard meals according to the ARRIVE guidelines. The animals were sacrificed eight weeks postoperatively (n = 6), and each rabbit was divided into three different groups. […] General anesthesia was induced by injecting 65 mg kg^−1 ketamine (Ketalar, Yuhan, Korea) and xylazine (Rompun, Bayer, Korea). A full‐thickness flap was raised under local anesthesia with 2% lidocaine and 1:100 000 epinephrine to expose the calvarial bone. Slits around the sagittal suture were prepared using a trephine bur (7 mm in diameter, 1 mm in depth), and then four perforations of the external cortical bone plate were made. […]
‐Radiographic analysis: A single‐blinded examiner conducted all the measurements. […] The volume of the newly formed bone within the cylinders was measured.
The embedding paraffin blocks were then sectioned into 4 µm thick slices and stained with Masson trichrome. […] Within the cylinder, the total augmented area, area and proportion of newly formed bone, and residual graft materials were measured as previously described.^[ [34] ^]

Sequence of MDM2 (Q00987 whole entry): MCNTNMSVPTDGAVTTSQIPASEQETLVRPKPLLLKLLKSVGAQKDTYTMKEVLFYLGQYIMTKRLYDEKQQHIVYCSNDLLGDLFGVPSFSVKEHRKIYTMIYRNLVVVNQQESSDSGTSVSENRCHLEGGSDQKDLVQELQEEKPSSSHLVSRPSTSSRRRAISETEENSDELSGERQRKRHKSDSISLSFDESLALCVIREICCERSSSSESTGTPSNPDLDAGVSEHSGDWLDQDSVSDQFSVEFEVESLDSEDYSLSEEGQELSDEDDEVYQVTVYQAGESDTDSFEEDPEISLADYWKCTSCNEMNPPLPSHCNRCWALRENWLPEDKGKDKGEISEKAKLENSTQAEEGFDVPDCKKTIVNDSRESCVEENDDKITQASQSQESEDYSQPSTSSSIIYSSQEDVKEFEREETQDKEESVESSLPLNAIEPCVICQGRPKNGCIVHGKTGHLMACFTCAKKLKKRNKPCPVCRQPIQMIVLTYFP
T1 sequence (Q13422 whole entry): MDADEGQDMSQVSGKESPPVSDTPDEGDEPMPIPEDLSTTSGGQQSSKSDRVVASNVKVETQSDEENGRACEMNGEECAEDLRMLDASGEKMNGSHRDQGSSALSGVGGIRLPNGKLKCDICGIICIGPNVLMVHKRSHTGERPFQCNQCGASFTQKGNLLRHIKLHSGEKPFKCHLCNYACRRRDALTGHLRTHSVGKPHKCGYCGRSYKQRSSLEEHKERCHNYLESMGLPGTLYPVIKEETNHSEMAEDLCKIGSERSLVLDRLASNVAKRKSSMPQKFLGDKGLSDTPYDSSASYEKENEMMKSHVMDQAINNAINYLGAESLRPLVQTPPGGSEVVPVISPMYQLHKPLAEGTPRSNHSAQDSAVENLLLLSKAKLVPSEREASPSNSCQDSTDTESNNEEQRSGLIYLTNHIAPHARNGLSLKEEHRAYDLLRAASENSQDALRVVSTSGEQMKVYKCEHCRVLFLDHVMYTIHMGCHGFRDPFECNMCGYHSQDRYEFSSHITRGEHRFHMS

SMILES: COc1ccc(C2=N[C@H](c3ccc(Cl)cc3)[C@H](c3ccc(Cl)cc3)N2C(=O)N2CCN(CC(=O)NCCCCCCCCOc3cccc4c3C(=O)N(C3CCC(=O)NC3=O)C4=O)C(=O)C2)c(OC(C)C)c1 (stereo in doubt) [CL144]
- p53 levels (p53): elevated p53 levels in a dose‐dependent manner
- COL8A2 expression (log2FC) (hBMSCs): 6.02
- COL11A1 expression (log2FC) (hBMSCs): 6.23
- IKZF1 reduction (IKZF1): about 35%
- OPN mRNA level (RUNX2, OCN, OPN; 10 μΜ): increased
- expression levels of RUNX2 and OCN (mRNA) compared to Nutlin‐3 (RUNX2, OCN, OPN; same concentrations): significantly increased
- MDM2 degradation, dose-dependent effect (MDM2; 0.1 µM to 10 µM): robust MDM2 degradation
- MDM2 degradation (MDM2; 10 µM, neo-substrate experiment): ≈ 70%
- decrease in MDM2 levels compared to the basal level (MDM2; 10 μΜ for 1 h): over 80%
- maximal degradation concentration (Dmax) (MDM2; quantified western blot, 1 nM to 50 µM, n = 2): 1 μΜ
- DC50 (MDM2; quantified western blot, 1 nM to 50 µM, n = 2, read-out: half‐maximal degradation concentration (DC50)): 90 nM
- EGFP‐MDM2 maximal degradation efficacy (EGFP‐MDM2; 1 µM): 84%
- Dmax (EGFP signal intensity) (EGFP‐MDM2; EGFP‐MDM2 expressing cells, 1 nM to 50 µM, n = 3): 1 μΜ
- DC50 (EGFP‐MDM2; EGFP‐MDM2 expressing cells, 1 nM to 50 µM, n = 3, read-out: DC50 (EGFP signal intensity)): 250 nM
- concentration at which maximum degradation efficiency was achieved (EGFP‐MDM2; live imaging, 0.01 to 10 µM): 10 µM
- nuclear EGFP signal (EGFP‐MDM2; live imaging, treatment for 4 h): almost completely turned off the nuclear EGFP signal
- amount of new bone (histomorphometric analysis) (rabbit calvaria): 25.58 ± 11.70%
